Data taken from ChEMBL document CHEMBL3885861, “Open TG-GATES”.

Species: Rattus norvegicus
Assay: Open TG-GATES - Regimen: Daily Repeat
Assay type: toxicity, organism-based, Sprague-Dawley
Design: regimen Daily Repeat, gender Male, age 6 weeks
Details: in vivo, po, 150 mg/kg, route gavage, dose level Middle; for APTT / Bas / Eos / Fbg / Hb / Ht / Lym / MCH / MCHC / MCV / Mono / Neu / PT / Plat / RBC / Ret / WBC: tissue Blood; for KIDNEY_L / KIDNEY_R / KIDNEY_TOTAL: tissue Kidney; for LIVER: tissue Liver; for A/G / ALP / ALT / AST / BUN / CRE / Ca / Cl / DBIL / GLC / IP / K / LDH / Na / PL / RALB / TBIL / TC / TG / TP / gamma-GTP: tissue Plasma

In the case of `CN1C(=O)CCS(=O)(=O)C1c1ccc(Cl)cc1` (configuration not stated) [CHLORMEZANONE], the TERMINAL_BW (72 h, time 3 day) is reported as 226.1 g, the APTT (72 h, time 3 day) is reported as 15.7 s and the Bas (72 h, time 3 day) is reported as 0%. For the same compound, the Eos (72 h, time 3 day) was 1%, the Fbg (72 h, time 3 day) was 296.4 mg/dL and the Hb (72 h, time 3 day) was 13.5 g/dL. For the same compound, the Ht (72 h, time 3 day) was 39.4%, the Lym (72 h, time 3 day) was 76% and the MCH (72 h, time 3 day) was 21.8 pg. It also gave an MCHC (72 h, time 3 day) of 34.1%, an MCV (72 h, time 3 day) of 63.8 fL and a Mono (72 h, time 3 day) of 2.8%. It also gave a Neu (72 h, time 3 day) of 19.4%, a PT (72 h, time 3 day) of 11.4 s and a Plat (72 h, time 3 day) of 123.4 x10_4/uL. The RBC (72 h, time 3 day) was 618 x10_4/ul, the Ret (72 h, time 3 day) was 6.2% and the WBC (72 h, time 3 day) was 86.7 x10_2/uL. For the same compound, the KIDNEY_L (72 h, time 3 day) was 0.9 g, the KIDNEY_R (72 h, time 3 day) was 0.9 g and the KIDNEY_TOTAL (72 h, time 3 day) was 1.8 g. The LIVER (72 h, time 3 day) was 13 g, the A/G (72 h, time 3 day) was 0.9 and the ALP (72 h, time 3 day) was 1825 IU/L. The ALT (72 h, time 3 day) was 52.2 IU/L, the AST (72 h, time 3 day) was 69 IU/L and the BUN (72 h, time 3 day) was 15.4 mg/dL. It also gave a CRE (72 h, time 3 day) of 0.2 mg/dL, a Ca (72 h, time 3 day) of 11.2 mg/dL and a Cl (72 h, time 3 day) of 106.6 meq/L. It also gave a DBIL (72 h, time 3 day) of 0.014 mg/dL, a GLC (72 h, time 3 day) of 179.6 mg/dL and an IP (72 h, time 3 day) of 7.1 mg/dL. For the same compound, the K (72 h, time 3 day) was 4.5 meq/L, the LDH (72 h, time 3 day) was 74.6 IU/L and the Na (72 h, time 3 day) was 143 meq/L. For the same compound, the PL (72 h, time 3 day) was 144 mg/dL, the RALB (72 h, time 3 day) was 2.8 g/dL and the TBIL (72 h, time 3 day) was 0.026 mg/dL. It also gave a TC (72 h, time 3 day) of 80.4 mg/dL, a TG (72 h, time 3 day) of 94.6 mg/dL and a TP (72 h, time 3 day) of 5.9 g/dL. For the same compound, the gamma-GTP (72 h, time 3 day) was 1.4 IU/L, the TERMINAL_BW ([…], time 7 day) was 265.5 g and the TERMINAL_BW ([…], time 14 day) was 313.6 g. It also gave a TERMINAL_BW ([…], time 28 day) of 389.8 g, an APTT ([…], time 7 day) of 17 s and a Bas ([…], time 7 day) of 0%. It also gave an Eos ([…], time 7 day) of 0.8%, a Fbg ([…], time 7 day) of 302.2 mg/dL and a Hb ([…], time 7 day) of 13.2 g/dL. The Ht ([…], time 7 day) was 39.4%, the Lym ([…], time 7 day) was 78.2% and the MCH ([…], time 7 day) was 21.3 pg. It also gave an MCHC ([…], time 7 day) of 33.5%, an MCV ([…], time 7 day) of 63.4 fL and a Mono ([…], time 7 day) of 3%. For the same compound, the Neu ([…], time 7 day) was 18%, the PT ([…], time 7 day) was 11.5 s and the Plat ([…], time 7 day) was 129.2 x10_4/uL. It also gave an RBC ([…], time 7 day) of 621 x10_4/ul, a Ret ([…], time 7 day) of 6.4% and a WBC ([…], time 7 day) of 79.7 x10_2/uL. The APTT ([…], time 14 day) was 19.7 s, the Bas ([…], time 14 day) was 0% and the Eos ([…], time 14 day) was 0.8%. For the same compound, the Fbg ([…], time 14 day) was 306.2 mg/dL, the Hb ([…], time 14 day) was 14 g/dL and the Ht ([…], time 14 day) was 40.1%. It also gave a Lym ([…], time 14 day) of 80%, an MCH ([…], time 14 day) of 21 pg and an MCHC ([…], time 14 day) of 34.8%. It also gave an MCV ([…], time 14 day) of 60.3 fL, a Mono ([…], time 14 day) of 2% and a Neu ([…], time 14 day) of 16.2%. The PT ([…], time 14 day) was 11.6 s, the Plat ([…], time 14 day) was 118.9 x10_4/uL and the RBC ([…], time 14 day) was 665.2 x10_4/ul. For the same compound, the Ret ([…], time 14 day) was 4.2%, the WBC ([…], time 14 day) was 102.9 x10_2/uL and the APTT ([…], time 28 day) was 17.9 s. It also gave a Bas ([…], time 28 day) of 0%, an Eos ([…], time 28 day) of 1% and a Fbg ([…], time 28 day) of 281 mg/dL. It also gave a Hb ([…], time 28 day) of 14.5 g/dL, a Ht ([…], time 28 day) of 41.2% and a Lym ([…], time 28 day) of 78.8%. For the same compound, the MCH ([…], time 28 day) was 19.7 pg, the MCHC ([…], time 28 day) was 35.3% and the MCV ([…], time 28 day) was 55.7 fL. It also gave a Mono ([…], time 28 day) of 2.2%, a Neu ([…], time 28 day) of 16.8% and a PT ([…], time 28 day) of 11.9 s. It also gave a Plat ([…], time 28 day) of 105.4 x10_4/uL, an RBC ([…], time 28 day) of 741.2 x10_4/ul and a Ret ([…], time 28 day) of 2.8%. It also gave a WBC ([…], time 28 day) of 97.2 x10_2/uL, a KIDNEY_L ([…], time 7 day) of 1 g and a KIDNEY_R ([…], time 7 day) of 1 g. The KIDNEY_TOTAL ([…], time 7 day) was 2 g, the KIDNEY_L ([…], time 14 day) was 1.2 g and the KIDNEY_R ([…], time 14 day) was 1.2 g. For the same compound, the KIDNEY_TOTAL ([…], time 14 day) was 2.4 g, the KIDNEY_L ([…], time 28 day) was 1.3 g and the KIDNEY_R ([…], time 28 day) was 1.3 g. For the same compound, the KIDNEY_TOTAL ([…], time 28 day) was 2.5 g, the LIVER ([…], time 7 day) was 14.4 g and the LIVER ([…], time 14 day) was 15.9 g. It also gave an LIVER ([…], time 28 day) of 18.1 g, an A/G ([…], time 7 day) of 0.9 and an ALP ([…], time 7 day) of 1471.4 IU/L. For the same compound, the ALT ([…], time 7 day) was 46.2 IU/L, the AST ([…], time 7 day) was 63.6 IU/L and the BUN ([…], time 7 day) was 16.6 mg/dL. The CRE ([…], time 7 day) was 0.2 mg/dL, the Ca ([…], time 7 day) was 11.5 mg/dL and the Cl ([…], time 7 day) was 107.8 meq/L. The DBIL ([…], time 7 day) was 0.014 mg/dL, the GLC ([…], time 7 day) was 193.2 mg/dL and the IP ([…], time 7 day) was 6.9 mg/dL. It also gave a K ([…], time 7 day) of 4.2 meq/L, an LDH ([…], time 7 day) of 71.2 IU/L and a Na ([…], time 7 day) of 143.8 meq/L. The PL ([…], time 7 day) was 142.2 mg/dL, the RALB ([…], time 7 day) was 2.8 g/dL and the TBIL ([…], time 7 day) was 0.02 mg/dL. The TC ([…], time 7 day) was 80.6 mg/dL, the TG ([…], time 7 day) was 87 mg/dL and the TP ([…], time 7 day) was 6 g/dL. The gamma-GTP ([…], time 7 day) was 1.2 IU/L, the A/G ([…], time 14 day) was 0.8 and the ALP ([…], time 14 day) was 1404.2 IU/L. It also gave an ALT ([…], time 14 day) of 52.2 IU/L, an AST ([…], time 14 day) of 63.4 IU/L and a BUN ([…], time 14 day) of 17.2 mg/dL. The CRE ([…], time 14 day) was 0.2 mg/dL, the Ca ([…], time 14 day) was 11.3 mg/dL and the Cl ([…], time 14 day) was 106.8 meq/L. The DBIL ([…], time 14 day) was 0.006 mg/dL, the GLC ([…], time 14 day) was 188.2 mg/dL and the IP ([…], time 14 day) was 7 mg/dL. The K ([…], time 14 day) was 4.3 meq/L, the LDH ([…], time 14 day) was 76.6 IU/L and the Na ([…], time 14 day) was 142.8 meq/L. For the same compound, the PL ([…], time 14 day) was 136.8 mg/dL, the RALB ([…], time 14 day) was 2.9 g/dL and the TBIL ([…], time 14 day) was 0.052 mg/dL. For the same compound, the TC ([…], time 14 day) was 74.4 mg/dL, the TG ([…], time 14 day) was 74.4 mg/dL and the TP ([…], time 14 day) was 6.3 g/dL. For the same compound, the gamma-GTP ([…], time 14 day) was 1 IU/L, the A/G ([…], time 28 day) was 0.9 and the ALP ([…], time 28 day) was 1029.8 IU/L. It also gave an ALT ([…], time 28 day) of 46 IU/L, an AST ([…], time 28 day) of 58 IU/L and a BUN ([…], time 28 day) of 16.8 mg/dL. It also gave a CRE ([…], time 28 day) of 0.3 mg/dL, a Ca ([…], time 28 day) of 10.7 mg/dL and a Cl ([…], time 28 day) of 105.8 meq/L. It also gave a DBIL ([…], time 28 day) of 0.01 mg/dL, a GLC ([…], time 28 day) of 190.4 mg/dL and an IP ([…], time 28 day) of 5.8 mg/dL. For the same compound, the K ([…], time 28 day) was 4.1 meq/L, the LDH ([…], time 28 day) was 63.4 IU/L and the Na ([…], time 28 day) was 142.8 meq/L. The PL ([…], time 28 day) was 153.8 mg/dL, the RALB ([…], time 28 day) was 2.9 g/dL and the TBIL ([…], time 28 day) was 0.058 mg/dL. The TC ([…], time 28 day) was 83.4 mg/dL, the TG ([…], time 28 day) was 93.6 mg/dL and the TP ([…], time 28 day) was 6.4 g/dL. For the same compound, the gamma-GTP ([…], time 28 day) was 1 IU/L.
